In article PMC7660650, “Chemical Starting Matter for HNF4α Ligand Discovery and Chemogenomics” (International Journal of Molecular Sciences, 2020):
Several values for one entry are separate records, joined by “and”; a condition that tells them apart may be missing. Equal values may be shown once. Read-outs that look alike come from different tables or passages of the source.

Target: T1, Gal4-HNF4α (human HNF4α LBD) (Homo sapiens, UniProt P41235)
T1 construct: uniprot entry: P41235-1, residues 142-377; expressed in transfected cells; host or cells: HEK293T
T1 sequence (P41235 142-377): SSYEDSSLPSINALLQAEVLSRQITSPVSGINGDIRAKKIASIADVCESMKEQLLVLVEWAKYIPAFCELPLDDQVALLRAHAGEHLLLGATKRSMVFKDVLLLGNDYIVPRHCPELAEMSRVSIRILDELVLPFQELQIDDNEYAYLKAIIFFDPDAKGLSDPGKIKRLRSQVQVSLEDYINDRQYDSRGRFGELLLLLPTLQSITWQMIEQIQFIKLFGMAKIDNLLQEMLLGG
Experiment: Hybrid Gal4-HNF4α reporter gene assay in transiently transfected HEK293T cells
Type: cell-based

[1] = Table S1, primary screening, 50 µM

SMILES | HNF4a-screening_activity_(mean_of_n=2) [1] | HNF4a-screening_activity_(mean_of_n=2)
CN1C2CCC1CC(O)C2 (stereo not shown) [Prestw-Frag-0608, CN1C2CCC1CC(O)C2] | 1.089 and 1.102 | –
CC(C)(C)NCC(O)COc1ccccc1C1CCCC1 (stereo not shown) [Prestw-Frag-0674, CC(C)(C)NCC(O)COc1ccccc1C1CCCC1] | 1.434 | –
O=c1ccc2ccccc2o1 [Prestw-Frag-1000, O=c1ccc2ccccc2o1] | 1.227 | –
Nc1cc2ccccc2oc1=O [Prestw-Frag-1001, Nc1cc2ccccc2oc1=O] | – | 0.9336 and 1.001
Cc1cc(-c2ccccc2)nnc1N [Prestw-Frag-1003, Cc1cc(nnc1N)-c1ccccc1] | 1.014 and 1.217 | –
NC(=O)NS(=O)(=O)c1ccccc1 [Prestw-Frag-1006, NC(=O)NS(=O)(=O)c1ccccc1] | 1.153 and 1.01 | –
CC(=O)Nc1nncs1 [Prestw-Frag-1008, CC(=O)Nc1nncs1] | 1.066 and 0.8521 | –
Nc1nncs1 [Prestw-Frag-1009, Nc1nncs1] | 1.011 | –
COC(=O)C(c1ccccc1)c1ccccc1 [Prestw-Frag-1013, COC(=O)C(c1ccccc1)c1ccccc1] | 1.409 and 1.217 | –
c1ccc2c3c([nH]c2c1)CNCC3 [Prestw-Frag-1014, C1Cc2c(CN1)[nH]c1ccccc21] | 0.999 and 1.943 | –
C[N+](C)(CCO)Cc1ccccc1 [Prestw-Frag-1017, C[N+](C)(CCO)Cc1ccccc1] | 0.8969 and 1.169 | –
NC(=O)Cc1cccs1 [Prestw-Frag-1019, NC(=O)Cc1cccs1] | 1.073 and 1.154 | –
Cc1cc(=O)n(-c2ccccc2)[nH]1 [Prestw-Frag-1028, Cc1cc(=O)n([nH]1)-c1ccccc1] | 1.027 | –
NCCCCc1ccccc1 [Prestw-Frag-1031, NCCCCc1ccccc1] | 1.332 | –
Cn1nnnc1S [Prestw-Frag-1032, Cn1nnnc1S] | 1.09 | –
COc1ccc(Cc2ccc(OC)cc2)cc1 [Prestw-Frag-1033, COc1ccc(Cc2ccc(OC)cc2)cc1] | 1.259 and 1.114 | –
NCc1c(N)ccc(Cl)c1Cl [Prestw-Frag-1039, NCc1c(N)ccc(Cl)c1Cl] | 1.196 and 1.044 | –
O=C(O)c1ccccc1O [Prestw-Frag-1045, OC(=O)c1ccccc1O] | 1.058 | –
CCC(=O)Nc1ncnc2[nH]cnc12 [Prestw-Frag-1047, CCC(=O)Nc1ncnc2[nH]cnc12] | 0.8266 and 1.023 | –
Nc1nc2ccccc2n1Cc1ccc(F)cc1 [Prestw-Frag-1050, Nc1nc2ccccc2n1Cc1ccc(F)cc1] | 0.6752 and 1.069 | –
COc1ccc(CCN2CCC(N)CC2)cc1 [Prestw-Frag-1051, COc1ccc(CCN2CCC(N)CC2)cc1] | 1.433 | –
CC(C)(Oc1ccccc1)C(=O)O [Prestw-Frag-1053, CC(C)(Oc1ccccc1)C(O)=O] | 0.9983 and 1.387 | –
Nc1ccc[nH]c1=O [Prestw-Frag-1060, Nc1ccc[nH]c1=O] | 1.316 and 1.113 | –
COc1cc2c(cc1O)CCN[C@H]2C [Prestw-Frag-1063, COc1cc2[C@H](C)NCCc2cc1O] | 1.128 | –

SMILES | HNF4a-screening_activity_(mean_of_n=2) [1] | HNF4a-screening_activity_(mean_of_n=2)
COc1ccc(CCN)cc1O [Prestw-Frag-1064, COc1ccc(CCN)cc1O] | 1.012 | –
O=[N+]([O-])c1ccc(CO)cc1 [Prestw-Frag-1071, OCc1ccc(cc1)[N+]([O-])=O] | 1.036 and 1.173 | –
CCC1=C(C)CN(C(=O)NCCc2ccccc2)C1=O [Prestw-Frag-1075, CCC1=C(C)CN(C(=O)NCCc2ccccc2)C1=O] | 1.214 | –
NCCc1ccc(S(N)(=O)=O)cc1 [Prestw-Frag-1076, NCCc1ccc(cc1)S(N)(=O)=O] | 1.134 and 1.077 | –
CC(=O)c1cc(Cl)ccc1O [Prestw-Frag-1083, CC(=O)c1cc(Cl)ccc1O] | 1.17 | –
CCN(CC)CCNC(=O)c1ccccc1O [Prestw-Frag-1086, CCN(CC)CCNC(=O)c1ccccc1O] | 1.563 and 0.9485 | –
O=c1[nH]c2ccccc2o1 [Prestw-Frag-1087, O=c1[nH]c2ccccc2o1] | 1.002 and 1.32 | –
CC(=O)c1ccc(N2CCNCC2)c(F)c1 [Prestw-Frag-1094, CC(=O)c1ccc(N2CCNCC2)c(F)c1] | 1.1 and 1.293 | –
Cc1ncsc1CCO [Prestw-Frag-1098, Cc1ncsc1CCO] | 1.111 | –
NC(=O)[C@H](N)c1ccccc1 [Prestw-Frag-1099, N[C@@H](C(N)=O)c1ccccc1] | 1.079 | –
Clc1ccc2c(c1)Nc1ccccc1CC2 [Prestw-Frag-1101, Clc1ccc2CCc3ccccc3Nc2c1] | 2.203 | –
OC(c1ccccc1)c1ccc(Cl)cc1 (stereo not shown) [Prestw-Frag-1106, OC(c1ccccc1)c1ccc(Cl)cc1] | 0.8543 | –
c1ccc(N2CCNCC2)nc1 [Prestw-Frag-1110, C1CN(CCN1)c1ccccn1] | 1.308 | –
COC(=O)c1scc(C)c1N [Prestw-Frag-1111, COC(=O)c1scc(C)c1N] | 1.183 | –
CCN(Cc1ccccc1)c1ccccc1 [Prestw-Frag-1121, CCN(Cc1ccccc1)c1ccccc1] | 1.173 | –
OC(c1ccccc1)c1ccccc1 [Prestw-Frag-1122, OC(c1ccccc1)c1ccccc1] | 1.034 | –
NCC(CC(=O)O)c1ccccc1 (stereo not shown) [Prestw-Frag-1125, NCC(CC(O)=O)c1ccccc1] | 0.6886 | –
O=C(O)CCc1ccc(Cl)cc1 [Prestw-Frag-1126, OC(=O)CCc1ccc(Cl)cc1] | 0.7294 | –
Cc1oncc1C(N)=O [Prestw-Frag-1128, Cc1oncc1C(N)=O] | 0.9735 and 0.9722 | –
Cc1c(O)c2ccccc2oc1=O [Prestw-Frag-1130, Cc1c(O)c2ccccc2oc1=O] | 0.9979 | –
O=c1cc(O)c2ccccc2o1 [Prestw-Frag-1131, Oc1cc(=O)oc2ccccc12] | 1.185 | –
COc1ccc2ccncc2c1 [Prestw-Frag-1133, COc1ccc2ccncc2c1] | 1.332 | –
Cn1c(=O)[nH]c2nc[nH]c2c1=O [Prestw-Frag-1138, Cn1c(=O)[nH]c2nc[nH]c2c1=O] | 0.9492 | –
CNC(C)(C)Cc1ccccc1 [Prestw-Frag-1141, CNC(C)(C)Cc1ccccc1] | 1.206 | –

SMILES | HNF4a-screening_activity_(mean_of_n=2) [1] | HNF4a-screening_activity_(mean_of_n=2)
COc1cc(N)ncn1 [Prestw-Frag-1154, COc1cc(N)ncn1] | 1.214 | –
Oc1cccc2c1CCCC2 [Prestw-Frag-1156, Oc1cccc2CCCCc12] | 0.9426 | –
Cc1nnc(N)s1 [Prestw-Frag-1161, Cc1nnc(N)s1] | 1.123 | –
C(=C\c1ccccc1)/CN1CCNCC1 [Prestw-Frag-1163, C(\C=C\c1ccccc1)N1CCNCC1] | 1.316 | –
c1ccc2[nH]c(CN3CCCC3)nc2c1 [Prestw-Frag-1164, C(N1CCCC1)c1nc2ccccc2[nH]1] | 0.7439 and 0.7907 | –
Clc1ccc(Cn2cnc3ccccc32)cc1 [Prestw-Frag-1165, Clc1ccc(Cn2cnc3ccccc23)cc1] | 0.6294 and 0.7204 | –
COc1ccc(N)nn1 [Prestw-Frag-1167, COc1ccc(N)nn1] | 1.35 | –
OC(Cn1ccnc1)c1ccc(Cl)cc1Cl (stereo not shown) [Prestw-Frag-1182, OC(Cn1ccnc1)c1ccc(Cl)cc1Cl] | 1.1 | –
COc1cc2ccncc2cc1OC [Prestw-Frag-1183, COc1cc2ccncc2cc1OC] | 1.218 | –
Nc1ccc(Cl)nn1 [Prestw-Frag-1184, Nc1ccc(Cl)nn1] | 0.9468 | –
CN1CCC[C@H]1c1cccnc1 [Prestw-Frag-1187, CN1CCC[C@H]1c1cccnc1] | 1.172 | –
Cc1c(N)cccc1C(F)(F)F [Prestw-Frag-1189, Cc1c(N)cccc1C(F)(F)F] | 1.319 | –
O=C(O)c1cccnc1Nc1ccccc1 [Prestw-Frag-1191, OC(=O)c1cccnc1Nc1ccccc1] | 1.24 | –
c1ccc(C(CCN2CCCCC2)c2ccccc2)cc1 [Prestw-Frag-1193, C(CN1CCCCC1)C(c1ccccc1)c1ccccc1] | 0.8943 and 1.009 | –
CC(Oc1ccccc1)C(N)=O (stereo not shown) [Prestw-Frag-1200, CC(Oc1ccccc1)C(N)=O] | 0.9571 and 0.9481 | –
CN1CCN(c2nccc(N)n2)CC1 [Prestw-Frag-1204, CN1CCN(CC1)c1nccc(N)n1] | 1.248 | –
CS(=O)(=O)c1ccc(N)cc1 [Prestw-Frag-1214, CS(=O)(=O)c1ccc(N)cc1] | 1.202 | –
CCCCOc1cc(C(=O)NC)c2ccccc2n1 [Prestw-Frag-1228, CCCCOc1cc(C(=O)NC)c2ccccc2n1] | 0.8368 and 0.967 | –
COc1cccc2c1CCCC2=O [Prestw-Frag-1236, COc1cccc2C(=O)CCCc12] | 1.287 | –
Oc1ccc(-c2ccc(F)cc2F)cc1 [Prestw-Frag-1237, Oc1ccc(cc1)-c1ccc(F)cc1F] | 0.9944 | –
O=C(O)c1cccc(-c2ccc(F)cc2F)c1 [Prestw-Frag-1238, OC(=O)c1cccc(c1)-c1ccc(F)cc1F] | 1.01 | –
O=C(O)c1cc(-c2ccc(F)cc2)ccc1O [Prestw-Frag-1239, OC(=O)c1cc(ccc1O)-c1ccc(F)cc1] | 1.018 and 1.049 | –
